Source: patent US20250092032A1, “DEOXYCYTIDINE KINASE INHIBITORS” (CENTRE NATIONAL DE LA RECHERCHE SCIENTIFIQUE, priority 2022, published 2025)

Assays:
dCK = target: T1, dCK (Homo sapiens, UniProt P27707, C45S/C59S/C9S/S74E); assay: Affinity assay: Thermal Shift Assay (TSA), dCK thermal stabilization; assay type: binding; settings: dCK protein (C9S, C45S, C59S, S74E); 5 sM of protein, 50 sM of compound, 2% DMSO; mean ± SD
T1 construct: inferred from HisTrap purification with imidazole elution; made in house; host or cells: Escherichia coli BL21 pRIL
T1 sequence (P27707 whole entry C9S/C45S/C59S/S74E): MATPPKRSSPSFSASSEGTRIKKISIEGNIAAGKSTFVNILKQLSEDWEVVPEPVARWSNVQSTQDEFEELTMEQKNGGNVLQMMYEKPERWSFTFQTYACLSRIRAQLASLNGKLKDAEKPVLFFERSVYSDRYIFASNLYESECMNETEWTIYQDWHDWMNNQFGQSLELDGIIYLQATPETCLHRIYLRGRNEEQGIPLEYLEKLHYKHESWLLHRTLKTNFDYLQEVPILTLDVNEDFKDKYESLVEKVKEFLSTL
Method: dCK protein contained three solvent exposed cysteines mutated to serines in order to generate better quality crystals (C9S, C45S, C59S) and a serine mutated to glutamic acid (S74E). The S74E mutation mimics the phosphorylated state of this serine, which favors the open conformation of the enzyme, making it competent for nucleoside binding to evaluate the binding affinity with compounds. BL21 pRIL Escherichia Coli cells were transformed with dCK-plasmid. Cells were grown in LB media containing 100 μg/ml ampicillin and 34 μg/ml chloramphenicol at 18° C. for 20 h after induction with 1 mM IPTG. Cells were re-suspended in 50 mM TRIS, pH 8, 500 mM NaCl, 30 mM imidazole and 10% glycerol buffer containing one EDTA free anti-protease tablet (Roche). After sonication and centrifugation (30,000×g), the supernatant was loaded on a 5 ml HisTrap FF column (GE healthcare) pre-equilibrated with resuspension buffer. Protein was then eluted by re-suspension buffer containing 500 mM imidazole. Protein eluted fractions were mixed and concentrated. Protein was further purified by size exclusion chromatography (superdex 200 16/600, GE healthcare) in 20 mM HEPES, pH 7.5, and 200 mM NaCl before concentration to 30 mg/ml and storage at −80° C.
Thermal Shift Assay (TSA) experiments were performed in triplicate in 384-well PCR white plates (Thermo Scientific, AB-3384) in the assay buffer containing 20 mM HEPES, pH 7.5 and 200 mM NaCl. Final concentrations were adjusted to 5 sM of protein, 50 sM of compound (final 2% DMSO) and dye diluted to 1:1000, as recommended by manufacturer (Protein Thermal Shift Dye, ThermoFisher Scientific). […] Plates were centrifuged at 1000 rpm for 2 min at 4° C. Thermal melting experiments were carried using a CFX-384 Connect RT-PCR (Bio-Rad). Plates were first equilibrated at 25° C.; then, the plates were heated from 25 to 95° C. by 0.5° C./min steps. Raw fluorescence data were treated, and the melting temperatures (Tm) were calculated using CFX Manager 3.1 software (Bio-Rad). ΔTm represents the difference in Tm between the protein in the presence of compound and the protein alone (both at 2% DMSO). Each experiment was performed at least twice (with technical triplicates) and data are presented as the mean f SD in Table 1.

[1] = test system: CCRF-CEM cell line (T-cell acute lymphoblastic leukemia); assay: Cellular assay: inhibition of CCRF-CEM cell proliferation in presence of dT and dC (CellTiter-Blue); assay type: cell-based; settings: Homo sapiens, read-out: CELLULAR ASSAY IC50 (nM), 200 μM dT and 1 μM dC, 72 hours, mean ± SD
Method: The cellular assay was set up to assess the ability to inhibit dCK activity in a cellular model. The model was developed with a T-cell acute lymphoblastic leukemia cell line (CCRF-CEM), because of its high dependence on the salvage pathway, thus on dCK activity. Cellular assays were performed to assess the inhibition of cell proliferation under two conditions: i) in the presence of the molecule alone to determine the non-specific effect on cells, independent of dCK (non-specific toxicity) and ii) in the presence of an inhibitor of the De Novo pathway to determine the ability of molecules to inhibit dCK and decrease tumor proliferation (activity on dCK). The inhibitor of the De Novo pathway chosen for the experiments was thymidine (dT), a physiological inhibitor of ribonucleotide reductase which arrests cell proliferation in phase S. The dTTP produced via thymidine kinase from dT acts as a RNR inhibitor by an allosteric regulation of the R1 subunit (FIG. 1). The addition of the nucleoside deoxycytidine (dC) in the medium allows the rescue of cell proliferation by passing only through the salvage pathway, mediated by dCK. Therefore, cell proliferation under these conditions (+dT+dC) is dCK dependent and it is possible to determine the IC50 of dCK inhibitors on the inhibition of cell proliferation. Results are expressed as % cell proliferation relative to the control with DMSO in Table 1.
CCFR-CEM cells were grown at 37° C. in RPMI 1640 with L-glutamine, supplemented with 100 units/ml penicillin, […] streptomycin, and 10% heat-inactivated foetal calf serum. The experiments were carried out on 96-well plates under the following conditions: 14,000 cells per well, RPMI 1640 culture medium supplemented with 10% heat-inactivated foetal calf serum, 200 sM of dT, 1 sM of dC and a range of dilutions of each molecule ranging from 40 μM to 10 μM, depending on the activity of the molecules (final 0.2% DMSO). Cells were incubated for 72 hours under these different conditions and finally, incubated with 10 μl/well of CellTiter-Blue reagent (Promega) for 4 hours at 37° C. The amount of reduced dye formed by metabolically active cells was quantified by its fluorescence measured at 560 nm (excitation) and 590 nm (emission) in a microplate reader (CLARIOstar, BMG Labtech). A blank well without cells was used as a background control. Each experiment was performed at least three times (with technical triplicates) and data are presented as the mean f SD.

CCRF-CEM T-ALL cell line = assay: In vivo systemic leukemia model: NSG mice inoculated intravenously with luciferase-expressing CCRF-CEM cells; settings: for effect on disease progression / disease burden (bioluminescence): CCRF-CEM leukemia bearing NSG mice, dT 1.5 g/Kg, OR0642 40 mg/Kg (hydrochloride salt) i.p., FIG. 5; for day around which most of the mice died: the two components administered separately, FIG. 8
Method: Healthy 6 to 9 weeks-old male mice received 0.1×10^6 luciferase transduced-CCRF-CEM cells in the tail vein on Day 0 and were randomly assigned in four groups to receive intraperitoneal injections from Day 3 (Vehicle (n=8), dT (n=8), OR0642 (n=9) and dT+OR0642 (n=9)). […] Doses administered were: dT at 1.5 g/Kg, OR0642 at 40 mg/Kg and dT+OR0642 at 1.5 g/Kg and 40 mg/Kg, respectively. Vehicle was saline solution (0.9% NaCl) supplemented with 10% Kolliphor EL. OR0642 was administered in its hydrochloride salt form. Drug administration protocol is detailed in FIG. 4. Bioluminescence analysis was performed once/week using PhotonIMAGER Optima (Biospace Lab) following addition of endotoxin-free luciferin (30 mg/kg, Promega). Peripheral blood was obtained at Day 21 to determine the fraction of human blasts using flow cytometry. […] Analyses were performed on a Life Science Research Fortessa flow cytometer with DIVA software (BD Biosciences). The number of ALL cells/L peripheral blood was determined by using CountBright beads (Invitrogen, C36950) using described protocol. Daily monitoring of mice for symptoms of disease (ruffled coat, hunched back, weakness and reduced motility) determined the time of killing for injected animals with signs of distress. Kaplan-Meier curves, bioluminescence quantifications and statistical analyses were generated using Prism (Graphpad Software). Bioluminescence data were presented as the mean f SEM. Comparison of bioluminescence data at Day 21 was performed using One way ANOVA Kruskal-Wallis Test and Dunn's Multiple Comparison Test. Comparison of hCD45 populations was performed using One way ANOVA Kruskal-Wallis Test and Dunn's Multiple Comparison Test. Median survival times were compared using Log-Rank (Mantel-Cox) Test.

`CCCN(c1nc(-c2nc(N)cc(N)n2)cs1)c1cc(-c2ccc(S(=O)(=O)N3CCNCC3)nc2C(F)(F)F)ccc1C` [OR0658, 2-(2-((2-Methyl-5-(6-(piperazin-1-ylsulfonyl)-2-(trifluoromethyl)pyridin-3-yl)phenyl)(propyl)amino)thiazol-4-yl)pyrimidine-4,6-diamine] was tested, and the “AFFINITY ASSAY +ΔTm (°)” value (dCK) was 22.4 ± 0.1 ° and the IC50 [1] was 11.3 ± 2.1 nM.

`CCCN(c1nc(-c2nc(N)cc(N)n2)cs1)c1cc(-c2cnc(S(=O)(=O)N3CCN(C)CC3)cc2C(F)(F)F)ccc1C` [OR0656, 2-(2-((2-Methyl-5-(6-((4-methylpiperazin-1-yl)sulfonyl)-4-(trifluoromethyl)pyridin-3-yl)phenyl)(propyl)amino)thiazol-4-yl)pyrimidine-4,6-diamine] was tested, and the “AFFINITY ASSAY +ΔTm (°)” value (dCK) was 21.3 ± 0.8 ° and the IC50 [1] was 3.8 ± 2 nM.

`Cc1cn([C@H]2C[C@H](O)[C@@H](CO)O2)c(=O)[nH]c1=O` [dT, 1-[(2R,4S,5R)-4-Hydroxy-5-(hydroxymethyl)oxolan-2-yl]-5-methylpyrimidine-2,4(1H,3H)-dione, reference compound] was tested, and the “effect on disease progression / disease burden (bioluminescence)” value (CCRF-CEM T-ALL cell line) was “scarcely reduced the disease burden” and the “day around which most of the mice died” value (CCRF-CEM T-ALL cell line) was about 26 days.

For `Cc1ccc(Br)cc1N(CC(C)C)c1nc(-c2nc(N)cc(N)n2)cs1` [OR0637-1, 2-(2-((5-Bromo-2-methylphenyl)(isobutyl)amino)thiazol-4-yl)pyrimidine-4,6-diamine], the “AFFINITY ASSAY +ΔTm (°)” value (dCK) was 14.9 ± 0.2 ° and the IC50 [1] was 8310 ± 1870 nM.

With `CCCN(c1nc(-c2nc(N)cc(N)n2)cs1)c1cc(-c2ccc(S(=O)(=O)N3CCN(C)CC3)cc2)ccc1C` [OR0607, 2-(2-((4-Methyl-4′-((4-methylpiperazin-1-yl)sulfonyl)-[1,1′-biphenyl]-3-yl)(propyl)amino)thiazol-4-yl)pyrimidine-4,6-diamine] the “AFFINITY ASSAY +ΔTm (°)” value (dCK) was 19.2 ± 0.6 ° and the IC50 [1] was 31 ± 27 nM.

`CCCN(c1nc(-c2nc(N)cc(N)n2)cs1)c1cc(-c2ccc(S(=O)(=O)N3CCN(C)CC3)cc2C(F)(F)F)ccc1C` [OR0642, 2-(2-((4-Methyl-4′-((4-methylpiperazin-1-yl)sulfonyl)-2′-(trifluoromethyl)-[1,1′-biphenyl]-3-yl)(propyl)amino)thiazol-4-yl)pyrimidine-4,6-diamine] was tested, and the “effect on disease progression / disease burden (bioluminescence)” value (CCRF-CEM T-ALL cell line) was “did not show any anti-proliferative effect” and the “day around which most of the mice died” value (CCRF-CEM T-ALL cell line) was about 26 days.

For `Cc1ccc(-n2cc(CNS(C)(=O)=O)nn2)cc1N(CC(C)C)c1nc(-c2nc(N)cc(N)n2)cs1` [OR0609, N-((1-(3-((4-(4,6-Diaminopyrimidin-2-yl)thiazol-2-yl)(isobutyl)amino)-4-methylphenyl)-1H-1,2,3-triazol-4-yl)methyl) methanesulfonamide], the “AFFINITY ASSAY +ΔTm (°)” value (dCK) was 13.5 ± 0.7 ° and the IC50 [1] was 3180 ± 611 nM.

With `CCCN(c1nc(-c2nc(N)cc(N)n2)cs1)c1cc(-c2ccc(OCC(=O)N3CCN(C)CC3)nc2)ccc1C` [OR0630, 2-((5-(3-((4-(4,6-Diaminopyrimidin-2-yl)thiazol-2-yl)(propyl)amino)-4-methylphenyl)pyridin-2-yl)oxy)-1-(4-methylpiperazin-1-yl)ethan-1-one] the “AFFINITY ASSAY +ΔTm (°)” value (dCK) was 17.4 ± 0.2 °.

`CCCN(c1nc(-c2nc(N)cc(N)n2)cs1)c1cc(-c2ccc(S(=O)(=O)N3CCN(C)CC3)nc2C)ccc1C` [OR0653, 2-(2-((2-Methyl-5-(2-methyl-6-((4-methylpiperazin-1-yl)sulfonyl)pyridin-3-yl)phenyl)(propyl)amino)thiazol-4-yl)pyrimidine-4,6-diamine] was tested, and the “AFFINITY ASSAY +ΔTm (°)” value (dCK) was 21.6 ± 0.4 ° and the IC50 [1] was 2.8 ± 1.3 nM.

`CCCN(c1nc(-c2nc(N)cc(N)n2)cs1)c1cc(-c2cnc(O)cc2C(F)(F)F)ccc1C` [OR0655, 2-(2-((5-(6-Hydroxy-4-(trifluoromethyl)pyridin-3-yl)-2-methylphenyl)(propyl)amino)thiazol-4-yl)pyrimidine-4,6-diamine] was tested, and the “AFFINITY ASSAY +ΔTm (°)” value (dCK) was 19.0 ± 0.0 ° and the IC50 [1] was 251 ± 36 nM.

For `CCCN(c1nc(-c2nc(N)cc(N)n2)cs1)c1cc(-c2ccc(S(=O)(=O)N3CCN(CC(=O)O)CC3)cc2)ccc1C` [OR0649, 2-(4-((3′-((4-(4,6-Diaminopyrimidin-2-yl)thiazol-2-yl)(propyl)amino)-4′-methyl-[1,1′-biphenyl]-4-yl)sulfonyl)piperazin-1-yl)acetic acid], the “AFFINITY ASSAY +ΔTm (°)” value (dCK) was 17.6 ± 1.3 ° and the IC50 [1] was 13400 ± 546 nM.

For `CCCN(c1nc(-c2nc(N)cc(N)n2)cs1)c1cc(-c2cnc(S(=O)(=O)N3CCN(C)CC3)cc2C)ccc1C` [OR0652, 2-(2-((2-Methyl-5-(4-methyl-6-((4-methylpiperazin-1-yl)sulfonyl)pyridin-3-yl)phenyl)(propyl)amino)thiazol-4-yl)pyrimidine-4,6-diamine], the “AFFINITY ASSAY +ΔTm (°)” value (dCK) was 19.2 ± 0.1 ° and the IC50 [1] was 7.3 ± 2.5 nM.

With `CCCN(c1nc(-c2nc(N)cc(N)n2)cs1)c1cc(Br)ccc1C` [OR0652-1, 2-(2-((5-Bromo-2-methylphenyl)(propyl)amino)thiazol-4-yl)pyrimidine-4,6-diamine] the “AFFINITY ASSAY +ΔTm (°)” value (dCK) was 13.9 ± 0.2 ° and the IC50 [1] was 11300 ± 1370 nM.

`CCCN(c1nc(-c2nccc(N)n2)cs1)c1cc(-c2ccc(OCC(=O)N3CCN(C)CC3)cc2)ccc1C` [OR0597, 4-(4-Aminopyrimidin-2-yl)-N-(4-methyl-4′-(2-(4-methylpiperazin-1-yl)-2-oxoethoxy)-[1,1′-biphenyl]-3-yl)-N-propylthiazol-2-amine] was tested, and the “AFFINITY ASSAY +ΔTm (°)” value (dCK) was 17.1 ± 0.1 °.

With `CCCN(c1nc(-c2nc(N)cc(N)n2)cs1)c1cc(-c2ccc(S(=O)(=O)N3CCN(C)CC3)nc2)ccc1C` [OR0627, 2-(2-((2-Methyl-5-(6-((4-methylpiperazin-1-yl)sulfonyl)pyridin-3-yl)phenyl)(propyl)amino)thiazol-4-yl)pyrimidine-4,6-diamine] the “AFFINITY ASSAY +ΔTm (°)” value (dCK) was 17.5 ± 0.4 ° and the IC50 [1] was 48 ± 17 nM.

`CCCN(c1nc(-c2nc(N)cc(N)n2)cs1)c1cc(-c2cnc(OC)cc2C(F)(F)F)ccc1C` [OR0654, 2-(2-((5-(6-Methoxy-4-(trifluoromethyl)pyridin-3-yl)-2-methylphenyl)(propyl)amino)thiazol-4-yl)pyrimidine-4,6-diamine] was tested, and the “AFFINITY ASSAY +ΔTm (°)” value (dCK) was 18.3 ± 0.4 ° and the IC50 [1] was 610 ± 153 nM.

In the case of `CCCN(c1nc(-c2nc(N)cc(N)n2)cs1)c1cc(-c2ccc(S(=O)(=O)N3CCN(C)CC3)nc2C(F)(F)F)ccc1C` [OR0657, 2-(2-((2-Methyl-5-(6-((4-methylpiperazin-1-yl)sulfonyl)-2-(trifluoromethyl)pyridin-3-yl)phenyl)(propyl)amino)thiazol-4-yl)pyrimidine-4,6-diamine], the “AFFINITY ASSAY +ΔTm (°)” value (dCK) is reported as 22.0 ± 0.4 ° and the IC50 [1] is reported as 1.6 ± 0.9 nM.
